In patent US12084422B2, “Phenyl-n-quinoline derivatives for treating a RNA virus infection” (ABIVAX, priority 2018, dated 2024):

System: DENV-2 strain 16681
Experiment: Screening for DENV-2 inhibition using Viral ToxGlo assay in A549 cells
Assay type: cell-based, Dengue 2 virus
Conditions: Dengue virus, DENV2, A549, 120 h, read-out: % DENV-2 Inhibition Mean (n = 3)
Description: Protocol for Screening Antiviral Compounds for DENV-2 Inhibition and Cytotoxicity Using Viral ToxGlo Assay
A549 cells were maintained in Dulbecco's Modified Eagle Medium (DMEM) supplemented with 10% fetal bovine serum, 100 U/ml penicillin and 100 μg/ml streptomycin. For the purposes of the screening assay they were grown to 90% confluency, trypsinized and recovered. The trypsin was neutralised with cell culture media and cells were centrifuged at 150×g for 5 minutes before discarding the supernatant and resuspending cell pellet in assay media (DMEM supplemented with 2% fetal bovine serum and 100 U/ml penicillin and 100 μg/ml streptomycin). The cells were seeded into 96-well white clear-bottomed cell culture plates at a density of 1.0×10^4 cells/well in 50 μl. For the media/background control column assay media only was added. Cell plates were placed in a humid chamber and incubated overnight at 37° C./5% CO2. After overnight incubation cells were checked for confluency and healthy appearance.
Test compounds were prepared at a final concentration of 10 μM, in a maximum DMSO concentration of 1% (final assay concentration maximal 0.1% DMSO) and added to the cell plates in volumes of 10 μl. For cell control and virus control wells the test article solvent only was added. As a positive inhibition control, 7-Deaza-2′-C-methyladenosine was added at 100 μM in 3 wells. Virus (DENV-2 strain 16681) or assay media for cytotoxicity test wells and media/cell control wells was added immediately after test articles at an MOI of 0.5, 40 for 96 well plates respectively. Virus suspension was prepared by thawing DENV-2 frozen stocks and diluting to the required concentration of plaque forming units in assay media.
Cell plates were further incubated inside a humid chamber for 5 days p.i at 37° C./5% CO2. After the incubation period cells were observed under the microscope to check for characteristic cytopathic effect in virus control wells and healthy cells in the cell control wells. After plates were adjusted to room temperature 20 μl Viral ToxGlo (Promega) was added to each well of the 96-well cell plates. Plates were incubated at room temperature for 5 minutes before measuring the luminescence on a spectrophotometer (Envision, PerkinElmer).
DENV-2 inhibition was calculated as percentage of cytopathic effect inhibition relative to the virus control and cytotoxicity as percentage of cell survival relative to cell control wells.

Row | Compound | inhibition at 10 µM [%]
1 | Cc1cc(OC(C)C)ccc1Nc1ccc2cccc(Cl)c2n1 [Compound 10, 8-chloro-N-(4-isopropoxy-2-methylphenyl)quinolin-2-amine] | 79
2 | Cc1cc(OC(C)C)c(C)cc1Nc1ccc2cccc(Cl)c2n1 [Compound 43, 8-chloro-N-(4-isopropoxy-2,5-dimethylphenyl)quinolin-2-amine] | 68
3 | CCc1cc(OC(C)C)ccc1Nc1ccc2cccc(Cl)c2n1 [Compound 13, 8-chloro-N-(2-ethyl-4-isopropoxyphenyl)quinolin-2-amine] | 117
